What all share (type): in vivo
In assay [1] the test system is Heliothis virescens caterpillars. As to the kind of experiment: Heliothis virescens test (soya bean shoots dipped). Here is the method: (§1) Heliothis Virescens Test To produce a suitable preparation of active compound, 1 part by weight of active compound is mixed with the stated amounts of solvent and emulsifier, and the concentrate is diluted with emulsifier-containing water to the desired concentration. Soya bean shoots (Glycine max) are treated by being dipped into the preparation of active compound of the desired concentration and are populated with Heliothis virescens caterpillars whilst the leaves are still moist. After the desired period of time, the kill in % is determined. 100% means that all caterpillars have been killed; 0% means that none of the caterpillars have been killed.

Assay [2] relates to army worm (Spodoptera exigua) caterpillars. As to the kind of experiment: Spodoptera exigua test (cabbage leaves dipped). As for the experimental part: as §1, with “Spodoptera Exigua” for “Heliothis Virescens”, “Cabbage leaves (Brassica oleracea)” for “Soya bean shoots (Glycine max)”, “army worm (Spodoptera exigua)” for “Heliothis virescens”
The subject of assay [3] is greenhouse red spider mite (tetranychus urticae). Briefly: Tetranychus test (OP-resistant/dip treatment). The settings on record: active compound concentration 100 ppm, OP-resistant, dip treatment. As for the experimental part:
Tetranychus Test (OP Resistant/Dip Treatment)
To produce a suitable preparation of active compound, 1 part by weight of active compound is mixed with the stated amounts of solvent and emulsifier, and the concentrate is diluted with emulsifier-containing water to the desired concentration.
Bean plants (Phaseolus vulgaris) which are heavily infested by all stages of the greenhouse red spider mite (tetranychus urticae) are dipped into a preparation of active compound of the desired concentration.
After the desired period of time, the effect in % is determined. 100% means that all spider mites have been killed; 0% means that none of the spider mites have been killed.

Where [4] appears, read: active compound concentration 40 ppm.
The mark [5] stands for this setting: active compound concentration 500 ppm.

Turning to `Fc1cccc(F)c1C1=NC(c2ccc(-c3ccc(OCC(F)(F)F)nn3)cc2)CC1` (centres unmarked) [drawing 264], the “Kill rate in % after 7 d” value in assay [1] (setting [4]) is listed as 100%. For `CC(C)Oc1ncc(-c2ccc(C3CCC(c4c(F)cccc4F)=N3)cc2)cn1` (centres unmarked) [drawing 265], in assay [1] (setting [4]), the “Kill rate in % after 7 d” value turned out to be 100%.

Consider `Fc1cccc(F)c1C1=NC(c2ccc(-c3ccc(C(F)(F)F)cn3)cc2)CC1` (centres unmarked) [drawing 266], for which, in assay [1] (setting [4]), the “Kill rate in % after 7 d” value was 100%.

`Fc1cccc(F)c1C1=NC(c2ccc(-c3ccc(OCC(F)(F)F)nc3)cc2)CC1` (centres unmarked) [drawing 267]: in assay [1] (setting [5]), the “Kill rate in % after 7 d” value is 100%.

On to `CCCN(CC)c1ncc(-c2ccc(C3CCC(c4c(F)cccc4F)=N3)cc2)cn1` (centres unmarked) [drawing 268], for which the “Kill rate in % after 7 d” value in assay [1] (setting [4]) came out at 100%. As for `Fc1cccc(F)c1C1=NC(c2ccc(-c3ccc(N4CCOCC4)nc3)cc2)CC1` (centres unmarked) [drawing 269], the “Kill rate in % after 7 d” value in assay [1] (setting [5]) was 100%. Regarding `Fc1cccc(F)c1C1=NC(c2ccc(-c3ccc(OCC(F)(F)F)nc3)cc2)CC1` (centres unmarked) [drawing 277], the “Kill rate in % after 7 d” value in assay [2] (setting [5]) is reported as 100%. Still for that read-out and setting: for `CCCN(CC)c1ncc(-c2ccc(C3CCC(c4c(F)cccc4F)=N3)cc2)cn1` (centres unmarked) [drawing 278] the value was 100%. For the molecule `Fc1cccc(F)c1C1=NC(c2ccc(-c3ccc(N4CCOCC4)nc3)cc2)CC1` (centres unmarked) [drawing 279], the “Kill rate in % after 7 d” value in assay [2] (active compound concentration 1000 ppm) was found to be 100%.

With `CN(C)c1ncc(-c2ccc(C3CCC(c4c(F)cccc4F)=N3)cc2)cn1` (centres unmarked) [drawing 295], the “Kill rate in % after 7 d” value in assay [3] was determined as 98%. `CC(C)Oc1ncc(-c2ccc(C3CCC(c4c(F)cccc4F)=N3)cc2)cn1` (centres unmarked) [drawing 296]: the “Kill rate in % after 7 d” value in assay [3] is on record as 98%. Same read-out and setting: for `CC(C)Sc1ccc(-c2ccc(C3CCC(c4c(F)cccc4F)=N3)cc2)nn1` (centres unmarked) [drawing 297] the value was 98%; for `Fc1cccc(F)c1C1=NC(c2ccc(-c3cnc(N4CCOCC4)nc3)cc2)CC1` (centres unmarked) [drawing 298], 98%.

Turning to `Fc1cccc(F)c1C1=NC(c2ccc(-c3ccc(Cl)nc3)cc2)CC1` (centres unmarked) [drawing 299], in assay [3], the “Kill rate in % after 7 d” value is reported as 98%.

Values taken from patent publication US7179806B2, “Δ1-pyrrolines used as pesticides” (Bayer Cropscience AG, priority 2000, dated 2007).
